Molecules are shown by their SMILES.

The values that follow come from patent US11439646B2, “Anti-proliferative agents for treating PAH” (Pfizer Inc., priority 2016, dated 2022).

One experiment deals with human primary PAAFs. Put plainly: BrdU cell proliferation assay, human primary PAAFs. In kind it is cell-based. Conditions: serum, average of 3, FIG. 1c, read-out: IC50, serum-induced proliferation of human primary PAAFs. Here is the method: Cell proliferation assay. Primary PASMCs and PAAFs from normal human subjects (ScienCell Research Laboratories, San Diego, Calif., USA) and rat primary PASMCs (Cell Applications, San Diego, Calif., USA) were plated in CellBIND® 96-well plates in Dulbecco's modification of Eagle's medium (DMEM) containing 5% fetal bovine serum (FBS), and serum-starved for 24 h in DMEM containing 0.1% FBS. Cells were first pre-incubated with different concentrations of palbociclib (in triplicates) for 30 minutes, and then 30 ng/ml PDGF-BB or 5% FBS was added to stimulate cell proliferation. Cells were maintained for 48 h before the proliferation rate was evaluated using the Cell Proliferation ELISA BrdU (bromodeoxyuridine) Luminescence Kit (Roche Diagnostics, Mannheim, Germany). BrdU was added to the medium 16 h before the quantification of BrdU incorporation. This procedure was use to generate data as presented in at least FIGS. 1a, 1b, 1c, and 1d. IC50 values were calculated for any given inhibitor by determining the concentration of compound needed to inhibit 50% of the response applied to the system. IC50 values were derived from the four parameter logistic equation which was fit to the compound concentration response data.

The test system of the next experiment is rPASMC. In words: EdU cell proliferation assay, rPASMC. In kind it is cell-based. Conditions: Rattus norvegicus, 5% FBS, N = 6, FIG. 1g, read-out: rPASMC IC50 (nM), inhibition of proliferation. Here is the method: Alternatively, rather than using BrdU, EdU (5-ethynyl-2′-deoxyuridine) can be used. Cells were first pre-incubated with different concentrations of the CDK inhibitor for 30 minutes, and then 5% FBS was added to stimulate cell proliferation. Cells were maintained for 24 h before the proliferation rate was evaluated using EDU Click-iT EdU Alexa Fluor® 647 HCS Assay (Thermofisher Scientific, USA). EdU was added to the medium 16 h before the quantification of EdU incorporation. Proliferation was quantified by scanning the 96-well plates using automated high content imaging platform equipped with appropriate fluorescence microscopic filters for DAPI (4′,6-Diamidino-2-Phenylindole) or Hoechst stain and Cyanine5 dyes as part of the Click-iT assay. Proliferating EdU positive cells detected at Cyanine5 were quantified and normalized to total cell number per well where the total cell number per cell was identified by DAPI or Hoechst signal. The % effect was then calculated:
The average (avg) amount (amt) of proliferating cells per concentration of CDK inhibitor with FBS present.
The minimum amount of proliferation (min amt of prolif'n) is based on cell numbers in the wells where FBS is not added and no CDK inhibitor is present.
The maximum amount of proliferation (max amt of prolif'n) is based on cell numbers in the wells where FBS is added and no CDK inhibitor is present.

With `CC(=O)c1c(C)c2cnc(Nc3ccc(N4CCNCC4)cn3)nc2n(C2CCCC2)c1=O` [Palbociclib, 6-acetyl-8-cyclopentyl-5-methyl-2-{[5-(piperazin-1-yl)pyridin-2yl]amino}pyrido[2,3-d]pyrimidin-7(8H)-one], the values for the IC50 in the experiment with human primary PAAFs and with rPASMC were 0.0216 µM and 19 nM, respectively.
